≈ marks a conversion by molar mass, not a printed value. Calls of active or inactive are those of the source. The rule behind the calls is not given here.
Assays:
Escherichia coli = assay: Antibacterial activity against Escherichia coli; format: functional, organism-based
Candida albicans = assay: […] activity against Candida albicans; format: functional, organism-based
[1] = Toxicity against Artemia salina; format: organism-based; conditions: in vivo, read-out: LD50 (the source's name)

Compound | Activity (Escherichia coli) | Activity (Candida albicans) | LC50 [1]
CC(=O)O[C@H]1O[C@@H](C(C)(C)O)CC[C@@H]1[C@H]1CC[C@@]2(C)C3=C(CC[C@]12C)[C@@]1(C)C[C@@H](OC(=O)C[C@@](C)(O)CC(=O)O)[C@H](OC(C)=O)C(C)(C)[C@@H]1CC3 [HEBELOMIC ACID F] | inactive | inactive | 19.7 µg/mL (≈ 27.4 µM)
CC(=O)O[C@H]1CC2=C(CC[C@H]3C(C)(C)[C@@H](OC(C)=O)[C@H](OC(=O)C[C@@](C)(O)CC(=O)O)C[C@]23C)[C@]2(C)CC[C@H]([C@H]3CC[C@H](C(C)(C)O)O[C@@H]3O)[C@@]12C [HEBELOMIC ACID B] | inactive | inactive | 386 µg/mL (≈ 525 µM)
CC(=O)O[C@H]1[C@H](OC(=O)C[C@@](C)(O)CC(=O)O)C[C@]2(C)C3=C(CC[C@H]2C1(C)C)[C@]1(C)CC[C@H]([C@H]2CC[C@H](C(C)(C)O)O[C@@H]2O)[C@@]1(C)[C@@H](O)C3 [HEBELOMIC ACID A] | inactive | inactive | 96.5 µg/mL (≈ 139 µM)

From ChEMBL document CHEMBL1159268, “The structures of new lanostane triterpenes from the fruiting bodies of Hebeloma senescens” (J Nat Prod, 1995)
